Results: patent publication US20100069380A1 (published 2010)

melting point: > 300 °C
Structure (SMILES): Nc1ccc(Sc2c(O)c3c(=O)n(-c4ccccc4)c4ccccc4c3oc2=O)cc1
